These results are taken from patent US20090142411A1, “Composition and Device Comprising an Inorganic Component (Metal Compound) for Coagulation of Protein-Containing Fluids” (SMITH & NEPHEW, PLC, priority 2005, published 2009).

One test concerns the target bovine serum albumin (Bos taurus, UniProt P02769). Briefly: coagulation of bovine serum albumin solution. The following applies: 10 mg powder in 100 μl bovine serum albumin 40 mg/ml in PBS pH 7.4, undisturbed 2 hours. As to the method: The oxide powder was allowed to settle to the bottom of the vessel (0.5 ml capacity Eppendorf tube) and was left undisturbed for 2 hours.
(§1) The vessel was left undisturbed for 30 minutes.
as §1, §1, §1, §1
The vessel was left undisturbed for 24 h.

Test [1] can be described thus: coagulation of heat-inactivated foetal calf serum. The method, then: (§2) The oxide powder was allowed to settle to the bottom of the vessel (0.5 ml capacity Eppendorf tube) and was left undisturbed for 2 hours. […] The vessel was left undisturbed for 24 h.
A short description of test [2]: coagulation of chronic wound fluid. As to the method: as §2
Test [3] is described as follows: coagulation of whole human blood. The note with it: 1-5 μl aliquots of 350 mg/ml solution, 100 μl whole human blood. As to the method:
Examples 4-9 were repeated with 100 μl whole human blood in place of the bovine serum albumin solution.

The nature of test [4]: coagulation of whole human saliva. The note with it: 5 gi aliquot of 350 mg/ml solution in PBS pH 7.4, 100 μl whole human saliva, 30 minutes. As to the method:
as §1

For the next test, the system named is gelatine. As to the kind of experiment: coagulation of gelatine solution. The note with it: 5 μl aliquot of 350 mg/ml solution, 100 μl gelatine solution 40 mg/ml in PBS, immediately.

bovine serum albumin, sequence (P02769 25-607): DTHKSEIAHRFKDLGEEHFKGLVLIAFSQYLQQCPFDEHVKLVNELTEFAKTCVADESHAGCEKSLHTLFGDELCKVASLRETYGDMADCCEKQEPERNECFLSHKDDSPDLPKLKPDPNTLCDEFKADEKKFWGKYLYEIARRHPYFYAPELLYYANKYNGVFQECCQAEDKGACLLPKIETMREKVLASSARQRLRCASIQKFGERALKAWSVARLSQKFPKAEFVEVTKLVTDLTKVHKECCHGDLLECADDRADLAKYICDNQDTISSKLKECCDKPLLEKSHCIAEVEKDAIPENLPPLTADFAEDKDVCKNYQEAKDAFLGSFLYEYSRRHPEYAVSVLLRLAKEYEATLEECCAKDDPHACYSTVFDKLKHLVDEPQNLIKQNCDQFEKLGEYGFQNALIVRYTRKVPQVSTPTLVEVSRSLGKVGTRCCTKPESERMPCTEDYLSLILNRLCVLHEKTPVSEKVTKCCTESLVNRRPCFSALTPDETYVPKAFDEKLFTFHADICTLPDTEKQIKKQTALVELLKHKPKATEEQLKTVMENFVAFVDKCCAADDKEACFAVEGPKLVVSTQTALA

Turning to “gold (III) oxide [gold (III) oxide powder]”, the coagulation result at bovine serum albumin is “a coagulated, opaque mass of several millimetres thickness was formed”; in test [1] (10 mg powder in 100 μl heat-inactivated foetal calf serum, undisturbed 2 hours), “a coagulated, opaque mass of several millimetres thickness was formed”; in test [2] (10 mg powder in 100 μl chronic wound fluid, overnight), “the entire fluid volume had coagulated”; in test [2] (10 mg powder in 100 μl chronic wound fluid, undisturbed 2 hours), “a coagulated, opaque mass of several millimetres thickness was formed”.

As for gold (III) chloride, the “coagulation, Examples 4-9 repeated” value in test [1] (1-5 μl aliquots of 350 mg/ml solution, 100 μl heat-inactivated foetal calf serum) is “The results were the same”; in test [2] (1-5 μl aliquots of 350 mg/ml solution, 100 μl chronic wound fluid) it was “The results were the same”; in test [3], “The results were the same”. Also, the coagulation result in test [1] (5 μl aliquot of 350 mg/ml solution, heat-inactivated foetal calf serum, 1.0 ml syringe, 24 h) is “the fluid coagulated”; in test [2] (5 μl aliquot of 350 mg/ml solution, chronic wound fluid, 1.0 ml syringe, 24 h), “the fluid coagulated”; in test [4], “a lightly coagulated, opaque mass of several millimetres thickness was formed”. Also, in the test on gelatine, the “coagulation / precipitate formation” value was “a fibrous precipitate was formed”.
